Each structure is given as a SMILES string. pIC50: −log10 of the molar value.

Assay [1] is described as follows: Selectivity ratio of IC50 for equine serum BChE to IC50 for electric eel AChE.
In the next assay the target is Cholinesterase (Equus caballus, UniProt P81908). Briefly: Inhibition of equine serum BChE using butyrylthiocholine iodide as substrate after 2 mins by Ellman's method.
In a further assay the target is Acetylcholinesterase (Electrophorus electricus, UniProt O42275).
Acetylcholinesterase, sequence (O42275 whole entry): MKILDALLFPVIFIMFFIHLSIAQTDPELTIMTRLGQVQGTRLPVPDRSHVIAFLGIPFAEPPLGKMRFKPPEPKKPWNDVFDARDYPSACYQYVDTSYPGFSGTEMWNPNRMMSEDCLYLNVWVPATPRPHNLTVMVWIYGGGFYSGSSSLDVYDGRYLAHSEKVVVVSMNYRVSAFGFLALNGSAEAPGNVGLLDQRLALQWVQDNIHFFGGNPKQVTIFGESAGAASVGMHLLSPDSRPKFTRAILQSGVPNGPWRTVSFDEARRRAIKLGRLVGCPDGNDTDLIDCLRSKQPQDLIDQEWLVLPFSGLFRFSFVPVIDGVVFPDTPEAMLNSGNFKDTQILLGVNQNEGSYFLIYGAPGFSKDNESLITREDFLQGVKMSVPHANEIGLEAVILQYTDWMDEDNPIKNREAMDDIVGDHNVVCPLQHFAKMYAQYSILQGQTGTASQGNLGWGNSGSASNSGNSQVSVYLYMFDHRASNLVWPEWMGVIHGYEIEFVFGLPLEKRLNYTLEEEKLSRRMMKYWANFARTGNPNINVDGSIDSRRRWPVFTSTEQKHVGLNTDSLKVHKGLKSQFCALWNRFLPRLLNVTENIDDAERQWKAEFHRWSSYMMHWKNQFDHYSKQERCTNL

Cholinesterase, sequence (P81908 whole entry): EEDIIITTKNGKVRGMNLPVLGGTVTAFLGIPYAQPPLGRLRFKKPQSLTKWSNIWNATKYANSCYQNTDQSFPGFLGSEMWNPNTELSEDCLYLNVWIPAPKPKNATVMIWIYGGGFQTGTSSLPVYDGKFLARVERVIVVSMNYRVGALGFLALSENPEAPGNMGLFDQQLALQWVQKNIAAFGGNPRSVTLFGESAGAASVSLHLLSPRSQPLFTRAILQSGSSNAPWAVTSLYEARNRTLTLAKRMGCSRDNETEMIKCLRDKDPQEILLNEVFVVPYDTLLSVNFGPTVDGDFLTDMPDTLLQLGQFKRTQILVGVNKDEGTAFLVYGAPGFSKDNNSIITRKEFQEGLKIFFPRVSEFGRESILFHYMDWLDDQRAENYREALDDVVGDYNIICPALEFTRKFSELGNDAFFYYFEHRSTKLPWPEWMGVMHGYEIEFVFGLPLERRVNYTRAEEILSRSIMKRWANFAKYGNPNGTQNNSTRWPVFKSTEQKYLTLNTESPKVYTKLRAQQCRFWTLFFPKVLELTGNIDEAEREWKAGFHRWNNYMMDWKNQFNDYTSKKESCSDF
Description for Acetylcholinesterase: Inhibition of electric eel AChE using acetylthiocholine iodide as substrate after 2 mins by Ellman's method

The term pIC50 denotes the IC50 on a negative log10 scale, so that one unit is a factor of ten. The low end stands for a high IC50, the high end for a low IC50. On to `N#CC1=C(N)Oc2c(c(=O)oc3ccccc23)C1c1cc[n+](Cc2ccccc2Cl)cc1` (stereo not given), for which the Ratio IC50 in assay [1] is 3.2. Further, the pIC50 was 5.32 against Cholinesterase and 5.82 against Acetylcholinesterase.

Turning to `N#CC1=C(N)Oc2c(c(=O)oc3ccccc23)C1c1cc[n+](Cc2cccc(Cl)c2)cc1` (stereo not given), the Ratio IC50 in assay [1] is 45.4. The negative-log IC50 (pIC50) against Cholinesterase is 4.66; on Acetylcholinesterase it was 6.32.

`N#CC1=C(N)Oc2c(c(=O)oc3ccccc23)C1c1cc[n+](Cc2cccc(F)c2)cc1` (stereo not given): the Ratio IC50 in assay [1] is over 17.8. Also, the pIC50 against Cholinesterase is under 4.30; at Acetylcholinesterase it was 5.55.

Take `Cc1cccc(C[n+]2cccc(C3C(C#N)=C(N)Oc4c3c(=O)oc3ccccc43)c2)c1` (stereo not given): the Ratio IC50 in assay [1] amounted to 18.1. In addition, the pIC50 is 4.84 against Cholinesterase and 6.10 at Acetylcholinesterase.

Take `N#CC1=C(N)Oc2c(c(=O)oc3ccccc23)C1c1ccc[n+](Cc2ccc(F)cc2)c1` (stereo not given): the Ratio IC50 in assay [1] is 1. Besides, the pIC50 against Cholinesterase and against Acetylcholinesterase was 5.66 in each case.

Take `N#CC1=C(N)Oc2c(c(=O)oc3ccccc23)C1c1ccc[n+](Cc2ccccc2F)c1` (stereo not given): the Ratio IC50 in assay [1] turned out to be 22.8. Besides, the pIC50 against Cholinesterase was 4.39; against Acetylcholinesterase, 5.74.

On to `Cc1cccc(C[n+]2ccc(C3C(C#N)=C(N)Oc4c3c(=O)oc3ccccc43)cc2)c1` (stereo not given), for which the Ratio IC50 in assay [1] worked out at 2.6. The pIC50 at Cholinesterase was 5.26; at Acetylcholinesterase it was 5.72.

For `N#CC1=C(N)Oc2c(c(=O)oc3ccccc23)C1c1cc[n+](Cc2ccc(F)cc2)cc1` (stereo not given), the Ratio IC50 in assay [1] stood at 48.4. In addition, the pIC50 is 5.74 at Cholinesterase and 7.42 against Acetylcholinesterase.

With `Cc1ccccc1C[n+]1ccc(C2C(C#N)=C(N)Oc3c2c(=O)oc2ccccc32)cc1` (stereo not given), in assay [1], the Ratio IC50 is 4.8. The pIC50 at Cholinesterase is 4.75; against Acetylcholinesterase it was 5.43.

Take `N#CC1=C(N)Oc2c(c(=O)oc3ccccc23)C1c1ccc[n+](Cc2cccc(F)c2)c1` (stereo not given): the Ratio IC50 in assay [1] was over 25. The pIC50 at Cholinesterase was under 4.30; on Acetylcholinesterase, 5.70.

`N#CC1=C(N)Oc2c(c(=O)oc3ccccc23)C1c1ccc[n+](Cc2ccccc2Cl)c1` (stereo not given): the Ratio IC50 in assay [1] stood at 11.2. In addition, the values for the pIC50 against Cholinesterase and against Acetylcholinesterase were 4.95 and 6.00, respectively.

Turning to `N#CC1=C(N)Oc2c(c(=O)oc3ccccc23)C1c1cc[n+](Cc2ccc(Cl)c(Cl)c2)cc1` (stereo not given), the Ratio IC50 in assay [1] was determined as 28.9. In addition, the values for the pIC50 against Cholinesterase and at Acetylcholinesterase were 5.90 and 7.36, respectively.

As to `N#CC1=C(N)Oc2c(c(=O)oc3ccccc23)C1c1cc[n+](Cc2ccccc2F)cc1` (stereo not given), the Ratio IC50 in assay [1] is 12.4. The results for the pIC50 on Cholinesterase and at Acetylcholinesterase were 4.44 and 5.54, respectively.

On to `N#CC1=C(N)Oc2c(c(=O)oc3ccccc23)C1c1ccc[n+](Cc2cccc(Cl)c2)c1` (stereo not given), for which the Ratio IC50 in assay [1] was found to be 5.2. Further, the pIC50 on Cholinesterase is 4.42; against Acetylcholinesterase, 5.13.

Regarding `N#CC1=C(N)Oc2c(c(=O)oc3ccccc23)C1c1cc[n+](Cc2ccc(Cl)cc2Cl)cc1` (stereo not given), the Ratio IC50 in assay [1] was 0.68. The pIC50 was 6.25 on Cholinesterase and 6.08 on Acetylcholinesterase.
